Article PMC4456024 (Chemical biology & drug design, 2014)

Biological target: cardiac troponin C (cNTnC) (Homo sapiens, UniProt P63316, C35S/C84S)
Experiment: 2D 1H, […]-HSQC NMR titration, […] fit
Format: binding

Work on `Cc1ccc(C)c(N2CCN(c3ccncc3N)CC2)c1` [compound 6, 4-(4-(2,5-dimethylphenyl)-1-piperazinyl)-3-pyridinamine] yielded a Kd of 721 ± 16 µM.
